In US9719093B2, “Composition for treating cancer associated with HPV infection” (priority 2012, dated 2017):

Tested on: HeLa cell line
Test: Cell senescence-associated β-galactosidase (SA-β-gal) activity
Format: cell-based
Settings: treated alone
Experimental: A HeLa or Caski cell line, which was seeded in a 6-well plate in 2×10^5 cells or 1.5×10^5 cells and then cultured for a day by the method as described above, was transduced with siRNA. Then, each transduced cell line was treated with cisplatin (CDDP) in a final concentration of 2.5 uM, and cultured.
By using the cell senescence assay kit (BioVision, USA), cells were washed with PBS and treated with SA-β-gal staining solution for 12 hours at 37. Cells stained in blue were observed by using a general optical microscope with the magnification of 100 to 200 times.
SA β-Gal activity of a HeLA or Caski cell line, which was treated by the method as described above, was measured.

N.N.[Cl][Pt][Cl] [cisplatin]
SA β-Gal activity (staining): cells were stained in blue
